According to patent US9622988B2, “Small molecule xanthine oxidase inhibitors and methods of use” (Baylor College of Medicine, priority 2012, dated 2017):

Columns and labels:
XO = target: T1, XO (Bos taurus, UniProt P80457); assay: Conversion of DHNB to products by XO; assay type: biochemical, bovine; details: room temperature
T1 construct: Xanthine oxidase from bovine milk; purchased Sigma Chemical Co. (St. Louis, Mo.); host or cells: bovine milk (natural source)

[1] = Peroxynitrite scavenging assay; details: 20 μM (FIG. 7C)
Protocol: Peroxynitrite Scavenging Assay—Peroxynitrite (ONOO^−) was generated by mixing 5 mL acidic solution (0.6 M HCl) of H2O2 (0.7 M) and 5 mL of 0.6 M KNO2 in an ice bath for 1 second and the reaction was quenched with 5 mL of ice-cold 1.2 M NaOH. Residual H2O2 was removed using granular MnO2 prewashed with 1.2 M NaOH and the reaction mixture was then left overnight at −20° C. Concentrations of ONOO^− were determined before each experiment at 302 nm using a molar extinction coefficient of 1,670 M^−1 cm^−1. The final concentrations of reagents used in the assay are as follows: 25 μM ONOO^−, 10 μM DTPA, 5 μM DHR 123, 0.1 M phosphate buffer, pH 7.4. The ONOO^− scavenging assay was performed by monitoring the oxidation of dihydrorhodamine (DHR 123) by ONOO^− spectrophotometrically at 500 nm.

[2] = target: Xanthine oxidase from bovine milk (Bos taurus, UniProt P80457); details: for inhibition of XO: each compound at 20 μM (FIG. 2); for time course of inhibition of XO activity: 20 nM XO added to 50 μM xanthine and 6.67 μM inhibitor (FIG. 3)
[3] = test system: allantoxanamide induced hyperuricemic mice; assay: Hypouricemic effect in allantoxanamide induced hyperuricemic mice; assay type: in vivo, C57BL/6 mice; details: 100 mg/kg oral before 200 mg/kg allantoxanamide i.p., up to 4 hours (FIG. 13)
Protocol: A hyperuricemia mouse model was used. Allantoxanamide, a potent uricase inhibitor, was used to induce hyperuricemia in mice in this study. […] The mice were subsequently intraperitoneally injected with allantoxanamide at 200 mg/kg in 0.5% CMC-Na in a volume of 0.1 ml/10 g mouse body weight just after the tested drug oral administration to increase the serum uric acid level. […] The negative control mice were administered PEG400 only followed by i.p. allantoxanamide. The normal group mice were administered PEG400 only followed by i.p. CMC-Na only. Food and water were withheld overnight prior to the study. Whole blood samples were collected from mice through orbital vein bleeding at the end of the study. The mice were anaesthetized with diethyl ether inside a chamber. The blood was allowed to clot for 1 h at room temperature and then centrifuged at 2350×g for 4 min to obtain the serum. The serum was kept on ice and assayed immediately. Serum uric acid was determined with the phosphotungstate method, as known to those of skill in the art.

[4] = Superoxide scavenging assay (xanthine-xanthine oxidase system, NBT); details: 20 μM (FIG. 7D)
Protocol: Superoxide Scavenging Assay—Superoxide (O2^−.) scavenging activity was assayed in the xanthine-xanthine oxidase system and determined by the inhibition of the reduction of nitro blue tetrazolium (NBT) to form blue formazan which has an absorption at 560 nm. The final concentrations of reagents used in the assay are as follows: 16.8 mU xanthine oxidase, 25 μM xanthine, 50 μM NBT, and 0.1 M phosphate buffer (pH 8.5). […] The abilities of polyphenols to scavenge O2^−. were compared with that of GSH.

[5] = Antioxidant activity of polyphenols (summary); details: FIG. 7

Sequence of Xanthine oxidase from bovine milk (P80457 whole entry): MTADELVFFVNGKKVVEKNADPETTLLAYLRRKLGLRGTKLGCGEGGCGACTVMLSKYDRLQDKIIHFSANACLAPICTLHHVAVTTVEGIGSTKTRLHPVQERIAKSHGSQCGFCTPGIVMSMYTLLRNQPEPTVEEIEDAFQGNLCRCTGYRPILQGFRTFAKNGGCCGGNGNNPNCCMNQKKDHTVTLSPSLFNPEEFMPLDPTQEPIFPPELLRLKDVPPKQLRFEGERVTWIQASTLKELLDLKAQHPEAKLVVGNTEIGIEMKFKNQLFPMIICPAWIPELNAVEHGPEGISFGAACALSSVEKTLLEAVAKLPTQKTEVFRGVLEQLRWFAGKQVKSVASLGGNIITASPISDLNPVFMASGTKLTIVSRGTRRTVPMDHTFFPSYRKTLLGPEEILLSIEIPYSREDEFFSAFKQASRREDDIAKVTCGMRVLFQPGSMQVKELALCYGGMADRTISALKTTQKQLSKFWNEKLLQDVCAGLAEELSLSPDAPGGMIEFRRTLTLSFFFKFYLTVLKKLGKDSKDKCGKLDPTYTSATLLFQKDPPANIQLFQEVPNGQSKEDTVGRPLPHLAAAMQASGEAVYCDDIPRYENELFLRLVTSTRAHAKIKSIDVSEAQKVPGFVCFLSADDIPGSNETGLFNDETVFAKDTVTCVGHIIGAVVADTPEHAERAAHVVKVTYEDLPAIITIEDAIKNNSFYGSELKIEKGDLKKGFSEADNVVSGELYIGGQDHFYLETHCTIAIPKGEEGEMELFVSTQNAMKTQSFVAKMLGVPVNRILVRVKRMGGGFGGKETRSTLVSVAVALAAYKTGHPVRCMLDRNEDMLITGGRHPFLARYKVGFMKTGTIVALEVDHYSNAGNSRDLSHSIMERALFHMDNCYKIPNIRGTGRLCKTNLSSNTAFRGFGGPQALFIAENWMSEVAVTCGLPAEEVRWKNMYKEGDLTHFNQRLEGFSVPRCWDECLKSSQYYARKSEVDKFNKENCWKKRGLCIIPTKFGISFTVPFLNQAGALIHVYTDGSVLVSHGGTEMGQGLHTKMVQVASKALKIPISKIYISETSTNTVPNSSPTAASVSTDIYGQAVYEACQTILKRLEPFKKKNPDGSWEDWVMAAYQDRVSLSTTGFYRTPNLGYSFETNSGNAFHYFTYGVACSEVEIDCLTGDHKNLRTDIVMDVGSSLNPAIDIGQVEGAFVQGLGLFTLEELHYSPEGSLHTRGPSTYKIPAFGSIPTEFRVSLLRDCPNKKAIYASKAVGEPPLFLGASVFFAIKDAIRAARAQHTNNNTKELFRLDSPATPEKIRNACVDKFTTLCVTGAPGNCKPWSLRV
T1 sequence (P80457 whole entry): as above

SMILES	ONOO^− scavenging effect [1]	inhibition of XO [2]	also measured
O=C(O)c1cc(O)c(O)c([N+](=O)[O-])c1 [3,4-dihydroxy-5-nitrobenzoic acid]	–	–	inhibitory effect of the DHNB/XO product on XO (XO): no inhibitory effect on XO
O=Cc1cc(O)c(O)cc1[N+](=O)[O-] [DH6NB, 3,4-Dihydroxy-6-nitrobenzaldehyde]	strong scavenging effect	inhibitory effects on XO	–
O=Cc1ccc(O)c(O)c1 [DHB-CHO, 3,4-dihydroxybenzaldehyde]	strong scavenging effect	inhibitory effects on XO	–
O=C(O)c1ccc(O)c(O)c1 [DHB-COOH, 3,4-dihydroxybenzoic acid, reference compound]	–	no effect on XO	–
O=Cc1cc(O)c(O)c([N+](=O)[O-])c1 [DHNB, 3,4-Dihydroxy-5-nitrobenzaldehyde]	strong scavenging effect	inhibitory effects on XO	time course of inhibition of XO activity [2]: time-dependent inhibition; XO inhibition after treatment with reducing agents ([2]; 20 μM DHNB, then GSH, DTT or 2-ME 20 mM (FIG. 5)): did not abolish the inhibition; initial rates with increasing xanthine concentrations (Dixon plot) ([2]; DHNB concentration fixed, 1 min pre-incubation (FIG. 1B)): did not change with increasing xanthine concentrations; histology analysis for the liver, kidney, and heart vs control mice (C57BL/6 mice; mouse, in vivo): did not show any difference; serum urate levels (hypouricemic effect) [3]: significantly lowered in 2 hours and maintained at a level just slightly higher than the normal level in 4 hours
COc1ccc(CO)cc1OC [DMB-CH2OH, 3,4-dimethoxybenzyl alcohol, reference compound]	–	no effect on XO	–
O.O=Cc1cc(O)c(O)c(O)c1 [THB-CHO, 3,4,5-trihydroxybenzaldehyde hydrate]	strong scavenging effect	inhibitory effects on XO	IC50 of XO activity inhibition ([2]; 20 nM XO, 50 μM xanthine, phosphate buffer pH 7.4, 25° C.): too high to determine; superoxide scavenging effect [4]: strong scavenging effects on superoxide
COc1cc(C=O)ccc1O [Vanillin, reference compound]	–	no inhibition on XO activity	–
Oc1ncnc2[nH]ncc12 [allopurinol, reference compound]	–	–	antioxidant activity (scavenging of DPPH, ONOO^−, HOCl, superoxide ion) [5]: does not possess the antioxidant properties; time course of inhibition of XO activity [2]: time-dependent inhibition; pups died in two days (C57BL/6 mice; 500 mg/kg, total 19 pups of surviving mice): eight; serum urate levels (hypouricemic effect) [3]: significantly lowered the serum urate level close to the normal level
O=C(O)/C=C/c1ccc(O)c(O)c1 [caffeic acid, reference compound]	strong scavenging effect	no effect on XO	–
O=C(O)c1cc(O)c(O)c(O)c1 [gallic acid, reference compound]	strong scavenging effect	no effect on XO	–
